Source: publication PMC6135100 (Toxicology, 2017)
Read-outs that look alike come from different tables or passages of the source.

Assays:
AR [1] = details: AR reference compounds; ref Kleinstreuer 2016; cited from earlier work
[2] = target: T1, rat AR ligand-binding domain (LBD) fused to the DNA-binding domain of GAL4 (Rattus norvegicus, UniProt P15207); assay: qHTS AR β-lactamase; assay type: cell-based; details: for AR-bla Primary Assay EC50: Inactive = efficacy below 30% of R1881's activity
T1 sequence (P15207 651-882 limits assumed): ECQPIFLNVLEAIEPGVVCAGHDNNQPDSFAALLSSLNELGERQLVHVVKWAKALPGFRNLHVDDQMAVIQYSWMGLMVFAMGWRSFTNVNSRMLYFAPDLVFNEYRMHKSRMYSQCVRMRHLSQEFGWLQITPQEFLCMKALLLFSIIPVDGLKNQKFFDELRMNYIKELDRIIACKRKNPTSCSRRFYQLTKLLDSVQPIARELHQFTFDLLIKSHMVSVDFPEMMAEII

AR (full receptor) = AR (full receptor) (Homo sapiens, UniProt P10275); assay: qHTS AR-luciferase; assay type: cell-based; details: for AR-luc Primary Assay EC50 / AR-luc Primary Assay Efficacy: primary qHTS; for AR-luc Primary Assay EC50: Inactive = efficacy below 30% of R1881's activity; for AR-luc Efficacy / EC50: Table 3, mean ± SD, n=3; for AR-luc Efficacy / AR-luc Primary Assay Efficacy: relative to maximal efficacy of R1881; for EC50: read-out: AR-luc EC50
AR (full receptor), sequence (P10275 whole entry, the tested form may be a part): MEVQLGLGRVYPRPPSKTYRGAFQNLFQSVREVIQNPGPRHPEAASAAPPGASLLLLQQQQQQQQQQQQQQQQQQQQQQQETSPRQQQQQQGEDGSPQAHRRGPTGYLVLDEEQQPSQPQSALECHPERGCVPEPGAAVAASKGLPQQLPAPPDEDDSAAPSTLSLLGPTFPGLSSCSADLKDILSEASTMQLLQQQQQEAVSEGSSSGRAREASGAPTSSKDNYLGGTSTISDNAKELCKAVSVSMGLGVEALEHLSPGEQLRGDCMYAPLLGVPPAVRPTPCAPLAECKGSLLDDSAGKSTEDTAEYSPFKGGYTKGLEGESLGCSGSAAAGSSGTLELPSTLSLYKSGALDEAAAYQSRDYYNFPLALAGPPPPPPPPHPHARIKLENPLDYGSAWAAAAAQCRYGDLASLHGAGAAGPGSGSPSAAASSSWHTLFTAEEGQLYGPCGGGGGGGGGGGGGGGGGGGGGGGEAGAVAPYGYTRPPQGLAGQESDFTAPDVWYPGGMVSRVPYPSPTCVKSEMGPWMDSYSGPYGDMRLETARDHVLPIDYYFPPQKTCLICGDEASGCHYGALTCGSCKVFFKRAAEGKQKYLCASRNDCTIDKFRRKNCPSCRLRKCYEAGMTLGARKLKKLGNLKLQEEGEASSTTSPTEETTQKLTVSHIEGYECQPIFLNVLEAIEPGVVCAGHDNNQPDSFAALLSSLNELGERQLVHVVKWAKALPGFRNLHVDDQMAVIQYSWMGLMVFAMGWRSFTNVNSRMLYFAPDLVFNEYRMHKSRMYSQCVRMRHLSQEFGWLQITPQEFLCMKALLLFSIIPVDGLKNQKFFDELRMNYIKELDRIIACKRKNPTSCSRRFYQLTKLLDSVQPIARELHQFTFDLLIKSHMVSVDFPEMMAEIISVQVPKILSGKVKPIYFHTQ

AR-LBD = target: T2, AR-LBD (Rattus norvegicus, UniProt P15207); assay: Fluorescence polarization AR competition binding assay
T2 sequence (P15207 651-882 limits assumed): T1 sequence (P15207 651-882 limits assumed)

AR [3] = details: ref Tamaya et al. 1986; cited from earlier work
estrogen receptor = estrogen receptor (Homo sapiens, UniProt P03372); assay: Analogous estrogen receptor screens; assay type: cell-based; details: data not shown
estrogen receptor, sequence (P03372 whole entry): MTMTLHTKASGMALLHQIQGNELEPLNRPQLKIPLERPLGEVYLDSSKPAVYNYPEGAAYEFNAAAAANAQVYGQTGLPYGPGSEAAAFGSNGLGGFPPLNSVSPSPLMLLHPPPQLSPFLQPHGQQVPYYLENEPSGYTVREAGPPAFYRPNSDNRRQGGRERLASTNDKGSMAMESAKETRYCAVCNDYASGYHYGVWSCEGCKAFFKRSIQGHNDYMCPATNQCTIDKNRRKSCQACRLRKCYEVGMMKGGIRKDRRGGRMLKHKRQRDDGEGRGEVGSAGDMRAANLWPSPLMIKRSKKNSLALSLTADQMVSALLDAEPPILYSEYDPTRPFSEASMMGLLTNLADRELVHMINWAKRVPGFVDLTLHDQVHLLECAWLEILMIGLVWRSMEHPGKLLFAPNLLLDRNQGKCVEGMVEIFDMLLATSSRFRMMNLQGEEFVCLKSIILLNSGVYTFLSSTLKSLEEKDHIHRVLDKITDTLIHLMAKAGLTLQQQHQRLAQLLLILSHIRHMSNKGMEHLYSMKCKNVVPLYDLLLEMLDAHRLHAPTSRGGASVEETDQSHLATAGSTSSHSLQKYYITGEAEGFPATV

rabbit = rabbit development study; ref Morinaga et al. 1996b; cited from earlier work

Row | SMILES | Known AR Activity (AR [1]) | also measured
1 | C[C@]12CCC(=O)C=C1CC[C@@H]1[C@@H]2CC[C@]2(C)C(=O)CC[C@@H]12 [4-Androstenedione] | Agonist | –
2 | C[C@]12CCC(=O)C[C@@H]1CC[C@@H]1[C@@H]2CC[C@]2(C)[C@@H](O)CC[C@@H]12 [5α-Dihydrotestosterone] | Agonist | –
3 | CCNc1nc(Cl)nc(NC(C)C)n1 [Atrazine] | Inactive | –
4 | COC(=O)Nc1nc2ccccc2[nH]1 [Carbendazim] | Inactive | AR-bla Primary Assay EC50 ([2]; primary qHTS): Inactive^b; AR-luc Primary Assay EC50 (AR (full receptor)): Inactive^b
5 | CC(=O)O[C@]1(C(C)=O)CC[C@H]2[C@@H]3C=C(Cl)C4=CC(=O)[C@@H]5C[C@@H]5[C@]4(C)[C@H]3CC[C@@]21C [Cyproterone acetate] | Weak Agonist | –
6 | CC1(C)[C@H](C(=O)O[C@H](C#N)c2cccc(Oc3ccccc3)c2)[C@@H]1C=C(Br)Br [Deltamethrin] | Inactive | AR-bla Primary Assay EC50 ([2]; primary qHTS): Inactive^b; AR-luc Primary Assay EC50 (AR (full receptor)): Inactive^b
7 | C[C@]12CC[C@H]3C(=CCc4cc(O)ccc43)[C@@H]1CCC2=O [Equilin] | – | EC50 [2]: 19.5 µM; AR-bla Efficacy ([2]; Table 3, mean ± SD, n=3, relative to maximal efficacy of R1881): 31.53 ± 3.88%; FP Binding Efficacy (AR-LBD): −89.77 ± 13.22%; IC50 (AR-LBD): 21 ± 3.41 µM; AR-luc Efficacy (AR (full receptor)): 89.27 ± 18.86%; EC50 (AR (full receptor)): 6.31 ± 2.03 µM
8 | OC(c1ccc(Cl)cc1)(c1cncnc1)c1ccccc1Cl (stereo not shown) [Fenarimol] | Inactive | –
9 | C[C@]1(O)CC[C@H]2[C@@H]3CCC4=CC(=O)CC[C@]4(C)[C@@]3(F)[C@@H](O)C[C@@]21C [Fluoxymestrone] | Agonist | –
10 | CC(C)C(=O)Nc1ccc([N+](=O)[O-])c(C(F)(F)F)c1 [Flutamide] | Inactive | –
11 | CC1(C)[C@@H](O[C@H]2O[C@H](C(=O)O)[C@@H](O)[C@H](O)[C@H]2O[C@@H]2O[C@H](C(=O)O)[C@@H](O)[C@H](O)[C@H]2O)CC[C@]2(C)[C@H]3C(=O)C=C4[C@@H]5C[C@@](C)(C(=O)O)CC[C@]5(C)CC[C@@]4(C)[C@]3(C)CC[C@@H]12 [Glycyrrhizin] | – | binding to AR, previously identified (AR [3]): weak binder of AR
12 | CC(C)NC(=O)N1CC(=O)N(c2cc(Cl)cc(Cl)c2)C1=O [Iprodione] | Inactive | –
13 | C#C[C@]1(O)CC[C@H]2[C@@H]3CCC4=CC(=O)CC[C@@H]4[C@H]3CC[C@@]21CC [Levonorgestrel] | Agonist | –
14 | CC(=O)O[C@]1(C(C)=O)CC[C@H]2[C@@H]3C[C@H](C)C4=CC(=O)CC[C@]4(C)[C@H]3CC[C@@]21C [Medroxyprogesterone acetate] | Agonist | –
15 | C=C1C[C@H]2[C@@H]3C=C(C)C4=CC(=O)CC[C@]4(C)[C@H]3CC[C@]2(C)[C@@]1(OC(C)=O)C(C)=O [Melengestrol acetate] | – | IC50 (AR-LBD): 1.17 ± 0.2 µM; FP Binding Efficacy (AR-LBD; mean ± SD, n=3, printed as negative values): −124.24 ± 3.58%; AR-luc Efficacy (AR (full receptor)): 288.12 ± 44.83%; EC50 (AR (full receptor)): 0.017 ± 0.012 µM
16 | C[C@]12CCC(=O)C=C1CC[C@@H]1[C@@H]2CC[C@@]2(C)[C@H]1CC[C@]2(C)O [Methyltestosterone] | Agonist | –
17 | C[C@]1(O)CC[C@H]2[C@@H]3CCC4=CC(=O)CCC4=C3C=C[C@@]21C [Methyltrienolone (R1881), Methyltrienolone] | Agonist | AR-bla Primary Assay Efficacy [2]: 0.00131 [131] %
18 | C[C@]12CC[C@H]3[C@@H](CCC4=CC(=O)CC[C@@H]43)[C@@H]1CC[C@@H]2O [Nandrolone] | Agonist | –
19 | CC1(C)NC(=O)N(c2ccc([N+](=O)[O-])c(C(F)(F)F)c2)C1=O [Nilutamide] | Inactive | –
20 | CN1C(=O)CN=C(c2ccccc2)c2cc([N+](=O)[O-])ccc21 [Nimetazepam, nimetazepam] | – | AR-luc Primary Assay Efficacy (AR (full receptor)): 470%
21 | C#C[C@]1(OC(C)=O)CC[C@H]2[C@@H]3CCC4=CC(=O)CC[C@@H]4[C@H]3CC[C@@]21C [Norethindrone acetate] | Agonist | –
22 | C#C[C@]1(O)CC[C@H]2[C@@H]3CCC4=CC(=O)CC[C@@H]4[C@H]3CC[C@@]21C [Norethindrone] | Agonist | –
23 | C#C[C@]1(O)CC[C@H]2[C@@H]3CCC4=C(CCC(=O)C4)[C@H]3CC[C@@]21C [Norethynodrel] | Agonist | –
24 | CCCN(CCOc1c(Cl)cc(Cl)cc1Cl)C(=O)n1ccnc1 [Prochloraz] | Inactive | –
25 | Cc1oc(=O)oc1CN1CCN(c2cc3c(cc2F)c(=O)c(C(=O)O)c2n3C(C)S2)CC1 (stereo not shown) [Prulifloxacin] | – | activity in estrogen receptor screens (estrogen receptor): active; NOAEL for pregnancy (rabbit): 30 mg/kg; general toxicity NOAEL (rabbit): 10 mg/kg
26 | Oc1ccc(/C=C/c2cc(O)cc(O)c2)cc1 [Resveratrol] | Inactive | AR-bla Primary Assay EC50 ([2]; primary qHTS): Inactive^b; AR-luc Primary Assay EC50 (AR (full receptor)): Inactive^b
27 | CC/C(=C(\c1ccccc1)c1ccc(OCCN(C)C)cc1)c1ccccc1 [Tamoxifen] | Inactive | –
28 | C[C@]12CC[C@H]3[C@@H](CCC4=CC(=O)CC[C@@]43C)[C@@H]1CC[C@@H]2O [Testosterone] | Agonist | –
29 | C[C@]12C=CC3=C4CCC(=O)C=C4CCC3C1CC[C@@H]2O (stereo partly shown) [Trenbolone] | Agonist | AR-bla Primary Assay Efficacy ([2]; primary qHTS, relative to maximal efficacy of R1881): 105%; AR-luc Primary Assay Efficacy (AR (full receptor)): 122%
30 | Clc1ccc(C(c2ccc(Cl)cc2)C(Cl)(Cl)Cl)cc1 [p,p’-DDT] | Inactive | –
